Test results from patent US12252472B1, “Barbituric acid derivatives, their preparation and use thereof as leukocyte transmigration inhibitors and for treating inflammatory diseases, autoimmune diseases and cancer” (BAR-ILAN UNIVERSITY, priority 2017, dated 2025).

Columns and labels:
[1] = test system: primary human monocytes on TNF-alpha-activated HUVECs; test: Shear flow assay: monocyte adhesion and transmigration on TNFα-activated HUVECs; format: cell-based; details: for Level of Transmigration Blockage (%) / Monocyte adhesion / inhibition at 30 µM: 30 μM; for Level of Transmigration Blockage (%): monocytes on TNF-activated HUVECs under flow 0.05 Pa; for Monocyte adhesion: flow 0.05 Pa for 30 minutes; for inhibition at 30 µM: Table 2, read-out: monocyte-rolling inhibition
Text: A flow assay that allows detailed analysis of individual leukocyte interactions with endothelial cells (ECs), described in Bradfield et al. (Bradfield et al., 2016, PloS One, July 21; 11(7); Bradfield et al., 2007, Blood. October 1; 110(7):2545-55) was used for evaluation of the biological effects of the compounds according to the invention. This method allows the determination of the possible effects of the compounds on three major phases in leukocyte migration: the capture of free non-bound leukocytes by endothelium, migration of leukocytes on the endothelium surface, and transendothelial migration (transmigration) of human leukocytes through the HUVECs layer. Post transmigrational events can also be monitored by tracking individual leukocytes. […] Human umbilical vein endothelial cells (HUVECs) were cultivated in the plastic channel of the flow chamber, and human leukocyte were flowed over them using a calibrated pump, allowing monocyte capture, adhesion and migration to be monitored.
Human umbilical vein endothelial cells (HUVEC) were isolated by collagenase treatment of umbilical veins as previously described (Wall, R. T., et al., Factors influencing endothelial cell proliferation in vitro. J Cell Physiol, 1978. 96(2): p. 203-13) and maintained in M199 containing 20% fetal calf serum (FCS), 15 μg/mL endothelial cell growth supplement (Upstate Biotechnology, Lake Placid, NY), 100 μg/mL heparin, 50 μM hydrocortisone, and 10 μg/mL vitamin C. Cells were cultured up to a maximum of passage 5.
Peripheral blood mononuclear cells (PBMCs) were first isolated from blood of healthy donors followed by monocyte purification using a monocyte isolation kit (Miltenyi Biotec, Bergisch Gladbach, Germany). Purity and activity of monocytes were controlled by flow cytometry by labelling with anti-CD14 and anti-CD62L. Only populations of 90% or more double positive cells were used.
(§1) Flow assays were conducted as described in a previous study (Bradfield, P. F., et al., JAM-C regulates unidirectional monocyte transendothelial migration in inflammation. Blood, 2007. 110(7): p. 2545-55). HUVECs were cultured at 1×10^5 cells/slide on Ibidi 6-chamber slides (80606; Ibidi) before treatment with TNFα (500 U/mL) for 6-10 hours. An individual chamber outlet was then attached to a calibrated pump (74 900; Cole Partner, Vernon Hills, IL) and flow was generated by perfusing wash buffer (M199 with 0.15% BSA) or a monocyte suspension (2.5×10^6 cells/mL) over the HUVEC monolayer. The flow rate was representative of shear rates in small venules (0.05 Pa). Observations made using phase-contrast microscopy (Model: Axiovert 100; Objective: 20×/0.3 NA air; Carl Zeiss) were recorded using a high-resolution camera (D70; Nikon, Zurich, Switzerland). Individual images were recorded every 30 seconds with Nikon capture software (v4.2) and compiled into movie sequences using Adobe Photoshop (CS6) and Image J (v1.5d), allowing analysis of individual monocytes over large areas. The tested compounds, e.g. compounds of the general Formula (I), were maintained at the specified concentration in all wash buffers throughout the course of the experiment. The compounds were preincubated separately on both HUVECs and monocytes 15 minutes prior to flow co-culture. HUVEC monolayers were washed for 10 minutes prior to a compound wash-in step to allow for this preincubation period. The monocyte suspension was then perfused over HUVECs for 4 minutes followed by 20 to 60 minutes with wash buffer. Time-lapse recording was started upon monocyte first-contact with the monolayer. Monocyte adhesion data are presented as the total number of monocytes per unit field. Transmigration events are presented as a percentage of total monocytes captured from flow per unit field. All experiments were carried out using quadruplicate fields and are presented as a mean value (±SEM).
A timeline is shown to represent the positioning and timing of an individual monocyte during movie analysis (marked ‘Timeline’). […]

[2] = test system: B cells; test: B-lymphocyte adhesion and transmigration, MesenFlow assay; format: cell-based; details: 30 μg/ml
Procedure: as §1, with “HUVEC monolayers were washed for 10 minutes prior to a compound wash-in step to allow for this preincubation period. The monocyte suspension was then perfused over HUVECs for 4 minutes followed by 20 to 60 minutes with wash buffer. Time-lapse recording was started upon monocyte first-contact with the monolayer. Monocyte adhesion data are presented as the total number of monocytes per unit field. Transmigration events are presented as a percentage of total monocytes captured from flow per unit field. All experiments were carried out using quadruplicate fields and are presented as a mean value (±SEM).” left out

For `COC(=O)c1ccc(COc2cccc(C=C3C(=O)NC(=O)NC3=O)c2)cc1` [Formula 1, Methyl 4-((3-((2,4,6-trioxo-tetrahydropyrimidin-5(2H)-ylidene)methyl)phenoxy)methyl) benzoate], the “Level of Transmigration Blockage (%)” value [1] was 81%.
For `COC(=O)c1ccc(COc2c(C)cc(C=C3C(=O)NC(=O)NC3=O)cc2C)cc1` [Formula 4, Methyl 4-((2,6-dimethyl-4-((2,4,6-trioxotetrahydro-pyrimidin-5(2H)ylidene)methyl)phenoxy)methyl) benzoate], the “Level of Transmigration Blockage (%)” value [1] was 75%.
In the case of `O=C1NC(=O)C(=Cc2ccccc2OCc2cccc(C(=O)O)c2)C(=O)N1` [Formula 6, 3-((2-((2,4,6-trioxo-tetrahydropyrimidin-5(6H)-ylidene)methyl)phenoxy)methyl)benzoic acid], the “Level of Transmigration Blockage (%)” value [1] is reported as 78%.
In the case of `COC(=O)c1cccc(COc2cccc(C=C3C(=O)NC(=O)NC3=O)c2)c1` [Formula 9, Methyl 3-((3-((2,4,6-trioxo-tetrahydropyrimidin-5(2H)-ylidene)methyl)phenoxy)methyl) benzoate], the Monocyte adhesion [1] is reported as “unaffected”, the “Level of Transmigration Blockage (%)” value [1] is reported as 98% and the inhibition at 30 µM ([1]; Homo sapiens, HUVEC) is reported as over 90%.
In the case of `O=C1NC(=O)C(=Cc2c3ccccc3cc3ccccc23)C(=O)N1` [Formula 10, 5-(anthracen-9-ylmethylene)pyrimidine-2,4,6(1H,3H,5H)-trione], the Monocyte adhesion [1] is reported as “unaffected”, the “Level of Transmigration Blockage (%)” value [1] is reported as 92% and the inhibition at 30 µM ([1]; Homo sapiens, HUVEC) is reported as over 90%. For the same compound, the IC50 ([1]; Homo sapiens, HUVEC, flow 0.05 Pa, n=3) was 300 nM, the Emax ([1]; Homo sapiens, HUVEC, monocyte transmigration inhibition, read-out: maximal efficacy) was 40% and the “concentration below which not active on monocyte transmigration” value ([1]; dose response, 100 μM to 3 nM) was “below 30 nM”. The monocyte transmigration ([1]; dose response, concentrations higher than 30 nM) was “partial effect”, the monocyte transmigration ([1]; dose response, high concentrations (100 μM)) was “Total blocking” and the “time of the maximal effect” value ([1]; monocyte transmigration, read at 10, 15, 20 and 25 minutes) was 25 min.
In the case of “Tysabri®: an antibody against alpha 4 integrin, used as a positive control [reference compound]”, the “number of transmigrated B cells” value [2] is reported as “no net effect”.
